Measured values reported in patent US11667601B2, “Calcium BOPTA complex” (BRACCO IMAGING S.P.A., priority 2019, dated 2023).

Assay: Solubility in water of the isolated solid form
Type: physicochemical
Conditions: solid form obtained by the ethanol precipitation process

(4RS)-[4-carboxy-5,8,11-tris(carboxymethyl)-1-phenyl-2-oxa-5,8,11-triazatridecan-13-oato(5-)] calciate(3-) trisodium [Ca-BOPTA trisodium salt]
solubility of the solid form: soluble in water
